Patent US9686994B2, “Use of ALS inhibitor herbicides for control of unwanted vegetation in ALS inhibitor herbicide tolerant beta vulgaris plants” (BAYER CROPSCIENCE AG, priority 2012, dated 2017)
Entries after “also recorded” stand apart in the source; their conditions may differ.

Legend:
[1] = test system: mutated sugar beet plants comprising SEQ.ID.NO:3 and SEQ.ID.NO:5 (on two different alleles), Line A; experiment: Greenhouse trial: ALS inhibitor treatment of sugar beets in direct comparison, Line A; assay type: in vivo, Beta vulgaris L. ssp. vulgaris; conditions: day 14 after application at BBCH 14; scale 0% no damage to 100% completely killed; g/ha: foramsulfuron 13, iodosulfuron-methyl-Na 3.5, amidosulfuron 15, thiencarbazone-methyl 7.5, Bisbyribac-Na 50, metosulam 15
Description: (§1) Mutated sugar beet plants comprising SEQ.ID.NO:3 and SEQ.ID.NO:5 (on two different alleles) for use in the context of the present invention (as described in Example 4 above, “Line A”) were treated with different ALS inhibitors in direct comparison with sugar beet plants where the tryptophan at position 569 of the encoded ALS enzyme is substituted by a leucine (“Line B”), with sugar beet plants described in WO 98/02527 where the proline at position 188 of the encoded ALS enzyme is substituted by a serine (“Line C”), and a traditional variety (wild-type) sugar beet plant not having a mutation at positions 569 and 188 (“Line WT”).
(§2) Several groups of seeds of the four different mentioned sugar beet plants were sown separately in the greenhouse and grew up to stage BBCH 14 for Beta vulgaris L. ssp. vulgaris (i.e. 4 leaves (the second pair) unfolded) according to the BBCH monograph “Growth stages of mono- and dicotyledonous plants”, 2nd edition, 2001, ed. Uwe Meier, Federal Biological Research Centre for Agriculture and Forestry (Biologische Bundesanstalt für Land and Forstwirtschaft). Subsequently, the resulting separate groups of sugar beet plants were each individually treated with an ALS inhibitor (ALS-in) in the amounts (g/ha) indicated in Table 1.
(§3) On day 14 after application of the respective ALS inhibitor, the damage (i.e. the phytotoxicity) for each group of sugar beet plants was rated on a stratified scale from 0% (i.e. no damage, no phytotoxicity) to 100% (i.e. the plants were completely killed).

[2] = test system: sugar beet plants where the tryptophan at position 569 of the encoded ALS enzyme is substituted by a leucine, Line B; experiment: Greenhouse trial: ALS inhibitor treatment of sugar beets in direct comparison, Line B; assay type: in vivo, Beta vulgaris L. ssp. vulgaris; conditions: day 14 after application at BBCH 14; scale 0% no damage to 100% completely killed; g/ha: foramsulfuron 13, iodosulfuron-methyl-Na 3.5, amidosulfuron 15, thiencarbazone-methyl 7.5, Bisbyribac-Na 50, metosulam 15
Description: as §1, §2, §3

[3] = test system: sugar beet plants where the proline at position 188 of the encoded ALS enzyme is substituted by a serine, Line C; experiment: Greenhouse trial: ALS inhibitor treatment of sugar beets in direct comparison, Line C; assay type: in vivo, Beta vulgaris L. ssp. vulgaris; conditions: day 14 after application at BBCH 14; scale 0% no damage to 100% completely killed; g/ha: foramsulfuron 13, iodosulfuron-methyl-Na 3.5, amidosulfuron 15, thiencarbazone-methyl 7.5, Bisbyribac-Na 50, metosulam 15
Description: as §1, §2, §3

[4] = test system: traditional variety (wild-type) sugar beet plant not having a mutation at positions 569 and 188, Line WT; experiment: Greenhouse trial: ALS inhibitor treatment of sugar beets in direct comparison, Line WT; assay type: in vivo, Beta vulgaris L. ssp. vulgaris; conditions: day 14 after application at BBCH 14; scale 0% no damage to 100% completely killed; g/ha: foramsulfuron 13, iodosulfuron-methyl-Na 3.5, amidosulfuron 15, thiencarbazone-methyl 7.5, Bisbyribac-Na 50, metosulam 15
Description: as §1, §2, §3

[5] = test system: regenerated sugar beet plants having the mutated SEQ.ID.NO:3 (heterozygote for this mutation); experiment: Example 3: ALS inhibitor treatment of sugar beets, heterozygote mutant; assay type: in vivo; conditions: for resistance of the (heterozygote) mutated plants to the herbicide: foramsulfuron 12.5 g/ha, amidosulfuron 15 g/ha, iodosulfuron 3.5 g/ha, thiencarbazone-methyl 7.5 g/ha, up to 3 applications
From the text: (§4) The behaviour of regenerated sugar beet plants having the mutated SEQ.ID.NO:3 (heterozygote for this mutation) and a wild-type sugar beet commercial variety was compared.

[6] = test system: wild-type sugar beet commercial variety; experiment: Example 3: ALS inhibitor treatment of sugar beets, wild type; assay type: in vivo; conditions: foramsulfuron 12.5 g/ha, amidosulfuron 15 g/ha, iodosulfuron 3.5 g/ha, thiencarbazone-methyl 7.5 g/ha; with or without rapeseed oil methyl ester
From the text: as §4

[7] = test system: dual mutant sugar beet plant comprising SEQ.ID.NO:3 and SEQ.ID.NO:5 (NCIMB 42050); experiment: Example 4: ALS inhibitor treatment of sugar beets having further mutations in the ALS gene; assay type: in vivo; conditions: compared with the single mutant (position 569); even when put in composition with organic compounds
From the text: Subsequently, a mutated sugar beet plant was developed comprising SEQ.ID.NO:3 and SEQ.ID.NO:5 (on two different alleles). Such resulting dual mutant has been deposited under the Budapest Treaty under NCIMB 42050. A plant comprising both SEQ.ID.NO:3 and SEQ.ID.NO:5 can be generated by relying on several techniques, including, for instance, a subsequent mutagenesis step applied to the single mutant NCIMB 42051.
Then the resistance of this dual mutant plant (a mutation in one allele at amino acid 569 and a mutation in the other allele at amino acid 188) was compared with the single mutant (a mutation at position 569) sugar beet.

Row | SMILES | damage (phytotoxicity), average rating, Line A [1] [%] | damage (phytotoxicity), average rating, Line B [2] [%] | damage (phytotoxicity), average rating, Line C [3] [%] | damage (phytotoxicity), average rating, Line WT [4] [%] | resistance of the (heterozygote) mutated plants to the herbicide [5] | sensitivity of the wild-type plant to the herbicide [6] | resistance of the dual mutant plant to the herbicide [7] | resistance of the (heterozygote) mutated plants, herbicide applied together with the organic compound ([5]; iodosulfuron 3.5 g/ha with 25 g/ha rapeseed oil methyl ester)
1 | COc1cc(OC)nc(NC(=O)NS(=O)(=O)N(C)S(C)(=O)=O)n1 [Amidosulfuron, amidosulfuron] | 6.3 | 37.5 | 51.9 | 73.1 | same level of resistance | very sensitive | good resistance | 
2 | COc1cc(OC)nc(Oc2cccc(Oc3nc(OC)cc(OC)n3)c2C(=O)O)n1 [Bisbyribac-Na, bispyribac-sodium] | 17.5 | 38.1 | 71.7 | 80.0 |  |  |  | 
3 | COc1cc(OC)nc(NC(=O)NS(=O)(=O)c2cc(NC=O)ccc2C(=O)N(C)C)n1 [Foramsulfuron, foramsulfuron] | 26.9 | 45.6 | 77.5 | 80.0 | good resistance; also recorded: best resistance | very sensitive |  | 
4 | COC(=O)c1ccc(I)cc1S(=O)(=O)[N-]C(=O)Nc1nc(C)nc(OC)n1.[Na+] [Iodosulfuron-methyl-Na, iodosulfuron-methyl-sodium] | 22.5 | 38.8 | 80.0 | 82.5 |  |  |  | 
5 | COc1cc(OC)n2nc(S(=O)(=O)Nc3c(Cl)ccc(C)c3Cl)nc2n1 [Metosulam, metosulam] | 13.1 | 40.6 | 69.4 | 79.4 |  |  |  | 
6 | COC(=O)c1csc(C)c1S(=O)(=O)NC(=O)n1nc(OC)n(C)c1=O [Thiencarbazone-methyl, thiencarbazone-methyl] | 8.1 | 35.6 | 37.5 | 84.4 | about the same level of resistance as for iodosulfuron | very sensitive | good resistance | 
7 | COc1nc(C)nc(NC(=O)NS(=O)(=O)c2cc(I)ccc2C(=O)O)n1 [iodosulfuron] |  |  |  |  | good level of resistance | very sensitive |  | resistance declined
